Measurements: patent US20250277191A1, “METHODS AND COMPOSITIONS FOR CRYOPRESERVING SUBPOPULATIONS OF LYMPHOCYTES” (Ossium Health, Inc., priority 2022, published 2025)
Entries after “also recorded” stand apart in the source; their conditions may differ.

Tests used:
[1] = tested on: Hematopoietic cells and bone marrow; assay: CFU assay of bone marrow after thawing cells cryopreserved in DMSO; type: cell-based, human; conditions: for BFU-E / CFU-E / CFU-GEMM / CFU-GM / total CFU: after thawing, average score from duplicate wells
Experimental: Bone marrow prior to DMSO addition (designated “QC1”) was washed and resuspended at a concentration of 8×10^6 cells/ml in Rinse Media. Cells were aliquoted and mixed with equal volumes of DMSO solutions to yield final concentrations of either 2.5, 5 or 10% DMSO in Rinse Media. A 2.5 ml volume of each preparation was aliquoted in triplicate to 5 ml cryovials. After equilibrating for 5 minutes, the cryovials were placed in a CryoMed Controlled Rate Freezer and frozen using the following program: • Step 1. −1° C./minute to −86° C. • Step 2. −20° C./minute to −150° C. • Step 3. Hold at −150° C. The vials were transferred to LN2 after 5 minutes at −150° C. The following day, cryovials containing cryopreserved cells were thawed in a 37° C. water bath and transferred to a biological safety cabinet after sanitizing with 70% alcohol. The cells were transferred to a centrifuge tube and pelleted. After removing the supernatant, the cells were resuspended in 12.5 ml of Selection Media. The tubes were centrifuged again and the cell pellet was resuspended in final volume of 25 ml of Selection Media. Total cell counts were obtained using a Sysmex Hematology Analyzer. CFU assays were also performed. Fresh and as well as previously cryopreserved hematopoietic cells and bone marrow preparations were analyzed by CFU assay. Given the limited sample size, statistical analysis could not be performed.

[2] = tested on: Hematopoietic cells and bone marrow; assay: Flow cytometry of HSPC and lymphocyte subsets in cryopreserved bone marrow; type: cell-based, human
Experimental: Bone marrow prior to DMSO addition (designated “QC1”) was washed and resuspended at a concentration of 8×10^6 cells/ml in Rinse Media. Cells were aliquoted and mixed with equal volumes of DMSO solutions to yield final concentrations of either 2.5, 5 or 10% DMSO in Rinse Media. A 2.5 ml volume of each preparation was aliquoted in triplicate to 5 ml cryovials. After equilibrating for 5 minutes, the cryovials were placed in a CryoMed Controlled Rate Freezer and frozen using the following program: • Step 1. −1° C./minute to −86° C. • Step 2. −20° C./minute to −150° C. • Step 3. Hold at −150° C. The vials were transferred to LN2 after 5 minutes at −150° C. The following day, cryovials containing cryopreserved cells were thawed in a 37° C. water bath and transferred to a biological safety cabinet after sanitizing with 70% alcohol. The cells were transferred to a centrifuge tube and pelleted. After removing the supernatant, the cells were resuspended in 12.5 ml of Selection Media. The tubes were centrifuged again and the cell pellet was resuspended in final volume of 25 ml of Selection Media. Total cell counts were obtained using a Sysmex Hematology Analyzer. Flow cytometry was performed using non-cryopreserved Hematopoietic cells and bone marrow QC1 sample for comparison. Panel design for flow cytometry with the following panel of conjugated antibodies (see Table 1). Each tube was stained with the viability dye 7-AAD after antibody staining. [table]

C[S+](C)[O-] [DMSO, dimethyl sulfoxide]
CFU potential ([1]; 10% DMSO compared to 2.5 or 5% DMSO, qualitative): significantly reduces
BFU-E ([1]; cryopreserved in 2.5% DMSO): 11.5
CFU-E ([1]; cryopreserved in 2.5% DMSO): 7.5
CFU-GEMM ([1]; cryopreserved in 2.5% DMSO): 0.5
CFU-GM ([1]; cryopreserved in 2.5% DMSO): 7.5
total CFU ([1]; cryopreserved in 2.5% DMSO): 27
BFU-E ([1]; cryopreserved in 5% DMSO): 11.5
CFU-E ([1]; cryopreserved in 5% DMSO): 6
CFU-GEMM ([1]; cryopreserved in 5% DMSO): 0.5
CFU-GM ([1]; cryopreserved in 5% DMSO): 9
total CFU ([1]; cryopreserved in 5% DMSO): 27
BFU-E ([1]; cryopreserved in 10% DMSO): 4
CFU-E ([1]; cryopreserved in 10% DMSO): 3.5
CFU-GEMM ([1]; cryopreserved in 10% DMSO): 0
CFU-GM ([1]; cryopreserved in 10% DMSO): 0
total CFU ([1]; cryopreserved in 10% DMSO): 7.5
total CD3+ T cells ([2]; 2.5% DMSO compared to either 5 or 10%, FIG. 2B): reduced
Natural Killer cells (CD3-CD19-CD56+) ([2]; 2.5 or 5% DMSO compared with 10%, FIG. 2F): highest
percentage of viable CD45LOCD34+ HSPC in thawed products ([2]; 5% DMSO compared with 2.5 and 10% DMSO, FIG. 2A): highest; also recorded: enhanced
percentage of CD3+CD4-CD8-gd TCR+ gd T cells ([2]; 10% DMSO compared to 2.5 and 5%, FIG. 2C): lowest
gd T cells, sensitivity to DMSO concentration ([2]; across 2.5, 5 and 10% DMSO): relatively insensitive
percentage of CD4+CDRA+CCR7+ naïve T cells ([2]; across 2.5, 5 and 10% DMSO, FIG. 2D): increased with increasing DMSO concentrations; also recorded: lowest with the lower DMSO concentrations
naïve CD8+ T cells ([2]; across 2.5, 5 and 10% DMSO, significant between 2.5 and 10%, FIG. 2E): trend in decreasing; also recorded: relatively insensitive
percentage of HSPC within the total viable cell population ([2]; cryopreserved in 5% DMSO versus fresh, FIG. 1A): increased with cryopreservation
total population of T cells (CD3+) ([2]; cryopreserved in 5% DMSO versus fresh, FIG. 1B): decreased; also recorded: reduced
percentage of gd T cells ([2]; cryopreserved in 5% DMSO versus fresh, FIG. 1C): significant increase; also recorded: increased with cryopreservation
percentage of CD4+/CD8+CDRA+CCL7+ naïve T cells ([2]; cryopreserved in 5% DMSO versus fresh, FIG. 1D and 1E): significantly decreased; also recorded: reduced
percentage of NK cells ([2]; cryopreserved in 5% DMSO versus fresh, FIG. 1F): decreased following cryopreservation
